Experimental findings from patent US20230056846A1, “METHODS AND COMPOSITIONS FOR CANCER IMMUNOTHERAPY” (MEMORIAL SLOAN KETTERING CANCER CENTER, priority 2020, published 2023) are described below.

Each structure is given as a SMILES string.

One data set concerns CT26 MSH2-/- MMRd cells. Description: viability assay of MMR-deficient MSH2 KO CT26 cells. As to conditions: MSH2 KO cells compared with parental CT26. Type of data set: cell-based, mouse.
The next data set has as its system CT26 colon cancer cells. The experiment in a line: pre-treated CT26 cells implanted in mice randomized to anti PD-1 or IgG isotype control. Type of data set: in vivo, mouse. From the text:
FIGS. 4A-B. Treatment of colon cancer cells with TMZ and cisplatin induces a high frameshift load leading to the spontaneous immuno-rejection of tumors in a preclinical mouse model. FIG. 4A. […] Treatment with either anti PD-1 or the IgG isotype control was commenced when the tumors reached a volume of 200 mm^3. […] The MSH2 KO cell line was used as a positive control for PD-1 blockade. FIG. 4B. Tumors were subjected to whole exome sequencing at 250x and immunoediting was studied by comparing mutation losses before and after engraftment.
Experiments were performed to examine the effect of PD-1 blockade on the growth of tumors generated following injection of mice with tumor cells that had been pre-treated with either a vehicle control, TMZ alone, cisplatin alone, or TMZ/CDDP combination. 1 million cells from control or treatment groups (pre-treated for 8 weeks) were implanted subcutaneously into mice (n=10) and mice were then randomly assigned to either an anti PD-1 treatment group (treated with anti PD-1 at 6 mg/kg twice weekly when tumor reached 200 mm^3) or an IgG isotype control group. CT26 MSH2 KO cells were used as a positive control (FIG. 4). […] For tumors generated following injection of cells pre-treated with the combination of both temozolomide and cisplatin, out of 10 implanted tumors only one was not rejected (9 out of 10 were rejected). […]

Data set [1] relates to CT26 colon cancer cell line.
Description: CT26 cells were treated for 8 weeks by low dose TMZ, CDDP or TMZ/CDDP combination (drugs were removed one week before the experiment).

Regarding `[NH2][Pt]([NH2])([Cl])[Cl]` [CDDP, cisplatin], the cytotoxicity result in the data set with CT26 MSH2-/- MMRd cells was “Higher activity”. Moreover, the “effect of PD-1 blockade compared with isotype control on tumors from pre-treated cells” value in the data set with CT26 colon cancer cells (anti PD-1 6 mg/kg twice weekly from 200 mm^3) was “no effect of PD-1 blockade”. Further, the “tumor growth compared to control” value in the data set on CT26 colon cancer cells (cells pre-treated 8 weeks, 1 week wash out) is “no significant difference in tumor growth compared to control”. The “sensitivity of CT26 cells to single agent” value in data set [1] is reported as “sensitive”.
